Data from patent publication US20250082630A1, “METHODS OF TREATING BRAIN TUMOURS AND NEUROBLASTOMAS” (AstraZeneca AB, priority 2021, published 2025).

Assays:
U87 IDH1 mt R132H = experiment: Combination assay PARP inhibitor with TMZ, U87 IDH1mt; format: cell-based
Experimental: To evaluate the activity and potency of the PARP inhibitors described herein in combination with the standard of care chemotherapy Temozolamide (TMZ), ionizing radiation (IR) and the emerging chemotherapy VAL-083, U87, SJG2 and BT245 glioblastoma cells were assayed. Parental U87 cell lines were obtained from the AstraZeneca Global Cell Bank in Alderley Park, UK and the isocistrate dehydrogenase 1 mutant cell line (IDH1 mt R1 32H) was licensed in from ATCC. The SJ-G2 (ATRX mutant) and BT245 (H3K27M mutant) cell lines were obtained from The Research Institute of the McGill University Health Centre, Montreal, QC H4A 3J1, Canada. IDH1R132 mutation was induced in SJG2 cell line to generated isogenic pair (SJG2 IDH1mt and SJG2 IDH1 wt). […]
For the nuclear count end point assay, cells were fixed for ˜15 minutes (min) by the addition of 50 μl per well of Formaldehyde (Sigma-Aldrich F8775). […] The images were acquired using CellInsight CX5 (Thermo Fisher) and analysed by measuring the total number of hoechst stained nuclei. The number of nuclei (% confluence) of the drug treated wells were normalised to the DMSO control and the growth inhibition was calculated using the combenefit software (Di Veroli et al., 2016).

SJ-G2 IDH1wt ATRXmt = experiment: Monotherapy treatment, SJ-G2 IDH1wt ATRXmt; format: cell-based
Experimental: DMSO served as a vehicle control.
The plates were washed again and PBS was added.

## CNC(=O)c1ccc(N2CCN(Cc3ccc4nc(C)c(=O)[nH]c4c3F)CC2)c(F)n1 [Example 20, 6-fluoro-5-[4-[(5-fluoro-2-methyl-3-oxo-4H-quinoxalin-6-yl)methyl]piperazin-1-yl]-N-methyl-pyridine-2-carboxamide]
U87 IDH1 mt R132H; U87 IDH1mt
  concentration at which Compound 20 synergises with TMZ: 1 µM
U87 IDH1 mt R132H; U87 IDH1mt vs IDH1 wt
  lower concentration for synergy with TMZ in IDH1mt compared to wild type: 10 fold
SJ-G2 IDH1wt ATRXmt; SJ-G2, read-out: Compound 20 IC50
  IC50: 2340 nM
SJ-G2 IDH1wt ATRXmt; SJ-G2 ATRXmt model, monotherapy
  higher sensitivity compared to the ATRXwt U87 model: about 40 fold
